Measurements reported in paper PMC8253220, “Molecular design, synthesis and in vitro biological evaluation of thienopyrimidine–hydroxamic acids as chimeric kinase HDAC inhibitors: a challenging approach to combat cancer” (Journal of Enzyme Inhibition and Medicinal Chemistry, 2021).

These compounds were tested against T1, HDAC6 (Homo sapiens, UniProt Q9UBN7) (assay: In vitro HDAC6 inhibitory assay (BPS Bioscience, fluorogenic)). Conditions: 10 µM.
T1 construct: purchased BPS Bioscience 50006
T1 sequence (Q9UBN7 1-1215): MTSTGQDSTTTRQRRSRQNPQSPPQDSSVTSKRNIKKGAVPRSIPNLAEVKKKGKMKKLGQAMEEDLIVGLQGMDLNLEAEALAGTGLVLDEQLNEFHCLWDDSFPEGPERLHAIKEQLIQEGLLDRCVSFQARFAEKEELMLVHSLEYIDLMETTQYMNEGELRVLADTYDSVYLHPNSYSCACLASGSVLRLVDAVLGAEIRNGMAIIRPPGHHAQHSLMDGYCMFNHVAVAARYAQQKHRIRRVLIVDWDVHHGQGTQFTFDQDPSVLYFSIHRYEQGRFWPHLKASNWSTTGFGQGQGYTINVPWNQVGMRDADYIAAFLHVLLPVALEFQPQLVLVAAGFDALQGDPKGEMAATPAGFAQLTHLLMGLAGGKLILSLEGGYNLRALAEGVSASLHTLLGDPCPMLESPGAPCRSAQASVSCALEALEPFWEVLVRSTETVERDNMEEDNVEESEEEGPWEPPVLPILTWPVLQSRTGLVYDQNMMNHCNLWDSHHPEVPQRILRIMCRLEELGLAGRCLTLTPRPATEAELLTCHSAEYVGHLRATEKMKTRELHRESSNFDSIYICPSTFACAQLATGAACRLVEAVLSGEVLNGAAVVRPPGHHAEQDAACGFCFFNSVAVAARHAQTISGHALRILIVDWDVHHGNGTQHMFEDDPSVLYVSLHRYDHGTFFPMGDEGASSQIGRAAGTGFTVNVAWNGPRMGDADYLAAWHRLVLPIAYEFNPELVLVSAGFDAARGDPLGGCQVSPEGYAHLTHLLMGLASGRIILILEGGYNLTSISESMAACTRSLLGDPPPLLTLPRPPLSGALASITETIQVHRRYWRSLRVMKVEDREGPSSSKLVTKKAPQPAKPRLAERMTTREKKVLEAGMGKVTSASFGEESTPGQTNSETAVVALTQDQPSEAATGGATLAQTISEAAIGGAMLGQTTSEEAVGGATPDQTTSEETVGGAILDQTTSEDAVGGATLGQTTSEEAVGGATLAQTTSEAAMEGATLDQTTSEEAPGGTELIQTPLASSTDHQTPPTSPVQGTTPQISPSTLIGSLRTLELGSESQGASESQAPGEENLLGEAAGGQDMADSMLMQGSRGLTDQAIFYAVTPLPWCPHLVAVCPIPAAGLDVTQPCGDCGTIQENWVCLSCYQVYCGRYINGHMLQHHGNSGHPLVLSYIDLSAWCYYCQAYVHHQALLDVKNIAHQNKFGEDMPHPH
Format: biochemical
Procedure: (1 picture or pasted object on this page, not shown here)
HDAC activity assays were performed in duplicates at each concentration. The
In the case of `Cc1c(C(=O)NO)sc2ncnc(Nc3ccc(NC(=O)Nc4ccccc4)cc3)c12` [Compound 7a, 1–(4-(6-(hydroxycarbamoyl)-5-methylthieno[2,3-d]pyrimidin-4-ylamino)phenyl)-3-phenylurea], the “Mean % inhibition HDAC6” value is reported as 5% and the inhibition at 10 µM is reported as 7%. `COc1cccc(NC(=O)Nc2ccc(Nc3ncnc4sc(C(=O)NO)c(C)c34)cc2)c1` [Compound 7b, 1–(4-(6-(hydroxycarbamoyl)-5-methylthieno[2,3-d]pyrimidin-4-ylamino)phenyl)-3–(3-methoxyphenyl)urea] was tested, and the “Mean % inhibition HDAC6” value was 6% and the inhibition at 10 µM was 8%. For `Cc1c(C(=O)NO)sc2ncnc(Nc3ccc(NC(=O)Nc4cccc(C(F)(F)F)c4)cc3)c12` [Compound 7c, 1–(4-(6-(hydroxycarbamoyl)-5-methylthieno[2,3-d]pyrimidin-4-ylamino)phenyl)-3–(3-(trifluoromethyl)phenyl)urea], the inhibition at 10 µM was 8%. Compound `Cc1c(C(=O)NO)sc2ncnc(Nc3ccc(NC(=S)Nc4ccccc4)cc3)c12` [Compound 7d, 1–(4-(6-(hydroxycarbamoyl)-5-methylthieno[2,3-d]pyrimidin-4-ylamino)phenyl)-3-phenylthiourea] has an inhibition at 10 µM of 6%. `Cc1c(C(=O)NCCC(=O)NO)sc2ncnc(Nc3ccc(NC(=O)Nc4ccccc4)cc3)c12` [Compound 11a, 1–(4-(6-((3-(hydroxyamino)-3-oxopropyl)carbamoyl)-5-methylthieno[2,3-d]pyrimidin-4-ylamino)phenyl)-3-phenylurea] was tested, and the “Mean % inhibition HDAC6” value was 7% and the inhibition at 10 µM was 5%. With `COc1cccc(NC(=O)Nc2ccc(Nc3ncnc4sc(C(=O)NCCC(=O)NO)c(C)c34)cc2)c1` [Compound 11b, 1–(4-(6-((3-(hydroxyamino)-3-oxopropyl)carbamoyl)-5-methylthieno[2,3-d]pyrimidin-4-ylamino)phenyl)-3–(3-methoxyphenyl)urea] the “Mean % inhibition HDAC6” value was 13%. `Cc1c(C(=O)NCCC(=O)NO)sc2ncnc(Nc3ccc(NC(=O)Nc4cccc(C(F)(F)F)c4)cc3)c12` [Compound 11c, 1–(4-(6-((3-(hydroxyamino)-3-oxopropyl)carbamoyl)-5-methylthieno[2,3-d]pyrimidin-4-ylamino)phenyl)-3–(3-(trifluoromethyl)phenyl)urea] showed an inhibition at 10 µM of 8%. `Cc1c(C(=O)NCCCC(=O)NO)sc2ncnc(Nc3ccc(NC(=O)Nc4ccccc4)cc3)c12` [Compound 12a, 1–(4-(6-((4-(hydroxyamino)-4-oxobutyl)carbamoyl)-5-methylthieno[2,3-d]pyrimidin-4-ylamino)phenyl)-3-phenylurea] gave an inhibition at 10 µM of 7%. `COc1cccc(NC(=O)Nc2ccc(Nc3ncnc4sc(C(=O)NCCCC(=O)NO)c(C)c34)cc2)c1` [Compound 12b, 1–(4-(6-((4-(hydroxyamino)-4-oxobutyl)carbamoyl)-5-methylthieno[2,3-d]pyrimidin-4-ylamino)phenyl)-3–(3-methoxyphenyl)urea] was tested, and the “Mean % inhibition HDAC6” value was 7% and the inhibition at 10 µM was 13%. Compound `Cc1c(C(=O)NCCCC(=O)NO)sc2ncnc(Nc3ccc(NC(=O)Nc4cccc(C(F)(F)F)c4)cc3)c12` [Compound 12c, 1–(4-(6-((4-(hydroxyamino)-4-oxobutyl)carbamoyl)-5-methylthieno[2,3-d]pyrimidin-4-ylamino)phenyl)-3–(3-(trifluoromethyl)phenyl)urea] has an inhibition at 10 µM of 23%. For `Cc1c(C(=O)NO)sc2ncnc(Nc3cccc4[nH]cnc34)c12` [Compound 15a, 4-(1H-benzo[d]imidazol-4-ylamino)-N-hydroxy-5-methylthieno[2,3-d]pyrimidine-6-carboxamide], the “Mean % inhibition HDAC6” value was 8% and the inhibition at 10 µM was 7%. `Cc1c(C(=O)NO)sc2ncnc(Nc3ccccc3)c12` [Compound 15b, N-hydroxy-5-methyl-4-(phenylamino)thieno[2,3-d]pyrimidine-6-carboxamide] showed an inhibition at 10 µM of 30%. `Cc1c(C(=O)NO)sc2ncnc(Nc3ccc(Cl)cc3)c12` [Compound 15c, 4–(4-chlorophenylamino)-N-hydroxy-5-methylthieno[2,3-d]pyrimidine-6-carboxamide] was tested, and the “Mean % inhibition HDAC6” value was 7% and the inhibition at 10 µM was 9%. With `Cc1c(C(=O)NO)sc2ncnc(Nc3ccc(F)c(Cl)c3)c12` [Compound 15d, 4–(3-chloro-4-fluorophenylamino)-N-hydroxy-5-methylthieno[2,3-d]pyrimidine-6-carboxamide] the “Mean % inhibition HDAC6” value was 4% and the inhibition at 10 µM was 7%. With `Cc1c(C(=O)NCCC(=O)NO)sc2ncnc(Nc3ccccc3)c12` [Compound 19b, N-(3-(hydroxyamino)-3-oxopropyl)-5-methyl-4-(phenylamino)thieno[2,3-d]pyrimidine-6-carboxamide] the inhibition at 10 µM was 10%. `Cc1c(C(=O)NCCC(=O)NO)sc2ncnc(Nc3ccc(Cl)cc3)c12` [Compound 19c, 4–(4-chlorophenylamino)-N-(3-(hydroxyamino)-3-oxopropyl)-5-methylthieno[2,3-d]pyrimidine-6-carboxamide] was tested, and the “Mean % inhibition HDAC6” value was 9% and the inhibition at 10 µM was 7%. With `Cc1c(C(=O)NCCC(=O)NO)sc2ncnc(Nc3ccc(F)c(Cl)c3)c12` [Compound 19d, 4–(3-chloro-4-fluorophenylamino)-N-(3-(hydroxyamino)-3-oxopropyl)-5-methylthieno[2,3-d]pyrimidine-6-carboxamide] the “Mean % inhibition HDAC6” value was 0%. Work on `Cc1c(C(=O)NCCCC(=O)NO)sc2ncnc(Nc3ccccc3)c12` [Compound 20b, N-(4-(hydroxyamino)-4-oxobutyl)-5-methyl-4-(phenylamino)thieno[2,3-d]pyrimidine-6-carboxamide] yielded an inhibition at 10 µM of 56%. With `Cc1c(C(=O)NCCCC(=O)NO)sc2ncnc(Nc3ccc(Cl)cc3)c12` [Compound 20c, 4–(4-chlorophenylamino)-N-(4-(hydroxyamino)-4-oxobutyl)-5-methylthieno[2,3-d]pyrimidine-6-carboxamide] the “Mean % inhibition HDAC6” value was 7% and the inhibition at 10 µM was 9%. `Cc1c(C(=O)NCCCC(=O)NO)sc2ncnc(Nc3ccc(F)c(Cl)c3)c12` [Compound 20d, 4–(3-chloro-4-fluorophenylamino)-N-(4-(hydroxyamino)-4-oxobutyl)-5-methylthieno[2,3-d]pyrimidine-6-carboxamide] was tested, and the “Mean % inhibition HDAC6” value was 9%.
